Results: PubChem BioAssay AID1963827 (Molecular Pharmacology Branch, DTP, NCI, 2024)
Several values for one entry are separate records, joined by “and”; a condition that tells them apart may be missing. Equal values may be shown once.

System: 994946-033-R-J1-PDC complex spheroid viability
Test: Anticancer human tumor 994946-033-R-J1-PDC patient-derived melanoma cell line growth inhibition [POLQ]
Settings: for viability, T/C: stronger effect = lower value
Protocol: Multicellular complex tumor spheroid response to Polymerase (POL) inhibitors (novobiocin, ART-558, RP6685) in combination with a variety of drugs and investigational agents in selected tumor cell lines
The POL inhibitors (novobiocin, ART-558, and RP6685) were evaluated both individually and in combination with standard of care and investigational anticancer small molecules within a complex spheroid model of solid tumors. . Complex spheroids include a stromal component modeled by human endothelial cells (HUVEC) and fibroblasts modeled by human mesenchymal stem cells (MSCs). The concentration ranges selected for each drug and investigational agent were based upon clinically achievable concentrations if the clinical Cmax of the agent was known.
Compounds. The drugs and investigational agents: novobiocin (NSC847541), ART-558 (NSC835418), RP-6685 (NSC848927), peposertib (NSC802822), ceralasertib (NSC780249), elimusertib (NSC800525), camonsertib (NSC841442), AZD-1390 (NSC803789), olaparib (NSC753686), talazoparib (NSC767125), rucaparib (NSC756644), sotorasib (NSC818433), MRTX-1133 (NSC836407), SN-38 (NSC673596), topotecan (NSC609699), epotoside (NSC141540), doxorubicin (NSC123127), gemcitabine (NSC613327), 5-fluorouracil (NSC19893), paclitaxel (NSC125973), vemurafenib (NSC761431), MSA-2 (NSC828583), SN-011 (NSC837082), adavosertib (NSC754352), prexasertib (NSC758257), carboplatin (NSC241240) and oxaliplatin (NSC266046), were obtained from the National Cancer Institute (NCI) Developmental Therapeutics Program Chemical Repository (21). The FDA-approved anticancer drug set is available from the Developmental Therapeutics Program at https://dtp.cancer.gov/organization/dscb/obtaining/. […] The stock solutions were prepared in dimethyl sulfoxide (DMSO, Sigma-Aldrich, St. Louis, MO, cat. D2650), except for the platinum compounds which were prepared in saline (Quality Biological, Gaithersburg, MD, cat. 114-055-101), at 800-fold the tested concentration and stored at -70 degrees C prior to their use. All drugs and investigational agents were tested over a range starting from a high concentration at or near the clinical Cmax and decreasing in half-log increments. If the clinical Cmax for an agent had not been determined, the highest concentration tested was 10 microM, except for SN-38, which was tested at a high concentration of 1 microM.
Cell Culture. All cells were maintained in an incubator at 37 degrees C and 5% CO2 with 95% humidity. The PDC lines were cultured according to standard operating procedures established by the NCI PDMR (https://pdmr.cancer.gov). Table 3 of the manuscript, lists the cell lines along with the number of the three cell types plated to form the mct-spheroids and media for tumor cell growth. After thawing, all PDC lines, except 997537-175-T-J1-PDC and 415267-285-R-J2-PDC, were cultured in Matrigel-coated flasks prepared with a working solution of 1X Ham's F-12 nutrient mix, without supplementation (Thermo Fisher Scientific, cat. 11765054), 100 U/mL penicillin-streptomycin (Thermo Fisher Scientific, cat. 15140122), and 2.5% Matrigel (Corning Inc., Corning, NY, cat. 354248) for the first three passages. The two PDC lines 997537-175-T-J1-PDC and 415267-285-R-J2-PDC were cultured on uncoated flasks. The 857933-349-R-J2-PDC line was cultured in 6C/Colon 1B media containing advanced DMEM/F-12 (Thermo Fisher Scientific, cat. 12634028), 10 mM HEPES (Thermo Fisher Scientific, cat. 15630080), 1X GlutaMAX supplement (Thermo Fisher Scientific, cat. 35050061), 0.1 mg/mL primocin (InvivoGen, San Diego, CA, cat. ant-pm-2), 10% defined fetal bovine serum, heat inactivated (HyClone Laboratories Inc., Logan, UT, cat. SH30070.03HI), 50% L-WRN conditioned media (ATCC, cat. CRL-3276), 1.25 mM N-Acetyl-L-cysteine (Sigma-Aldrich, cat. A9165), 10 mM nicotinamide (Sigma-Aldrich, cat. N0636), 1X B-27 supplement (Thermo Fisher Scientific, cat. 17504044), 1X N-2 supplement (Thermo Fisher Scientific, cat. […]
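Note: spheroids exposed to drugs for 7 days.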
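Throughout, for viability, T/C: 100% = DMSO vehicle treated spheroids.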

For `COc1cccc(OCCCN)c1-c1cc(Nc2cnc(C#N)cn2)n[nH]1` + Cc1cccc(N(C)C(=O)C2C(O)CCN2c2nc(C)cc(C(F)(F)F)c2C#N)c1, the IC50 (curve of first compound, second compound 0.0316 µM) was 25.6 nM, the IC50 (curve of first compound, second compound 0.1 µM) was 14.7 nM and the IC50 (curve of first compound, second compound 0.316 µM) was 17.7 nM. It also gave an IC50 (curve of first compound, second compound 1 µM) of 9.64 nM, an IC50 (curve of first compound, second compound 3.16 µM) of 14.3 nM and an IC50 (curve of first compound, second compound 10 µM) of 79.8 nM. It also gave a viability, T/C (second compound 0.0316 µM, first compound 0.00316 µM) of 96%, a viability, T/C (second compound 0.0316 µM, first compound 0.01 µM) of 93.4% and a viability, T/C (second compound 0.0316 µM, first compound 0.0316 µM) of 40.3%. The viability, T/C (second compound 0.0316 µM, first compound 0.1 µM) was 22.7%, the viability, T/C (second compound 0.0316 µM, first compound 0.316 µM) was 22% and the viability, T/C (second compound 0.0316 µM, first compound 1 µM) was 17.4%. The viability, T/C (second compound 0.1 µM, first compound 0.00316 µM) was 99.8%, the viability, T/C (second compound 0.1 µM, first compound 0.01 µM) was 60.3% and the viability, T/C (second compound 0.1 µM, first compound 0.0316 µM) was 29.9%. For the same molecule, the viability, T/C (second compound 0.1 µM, first compound 0.1 µM) was 19%, the viability, T/C (second compound 0.1 µM, first compound 0.316 µM) was 19.1% and the viability, T/C (second compound 0.1 µM, first compound 1 µM) was 18.6%. For the same molecule, the viability, T/C (second compound 0.316 µM, first compound 0.00316 µM) was 76.6%, the viability, T/C (second compound 0.316 µM, first compound 0.01 µM) was 68.5% and the viability, T/C (second compound 0.316 µM, first compound 0.0316 µM) was 31.3%. The viability, T/C (second compound 0.316 µM, first compound 0.1 µM) was 20.1%, the viability, T/C (second compound 0.316 µM, first compound 0.316 µM) was 24.2% and the viability, T/C (second compound 0.316 µM, first compound 1 µM) was 12.4%. For the same molecule, the viability, T/C (second compound 1 µM, first compound 0.00316 µM) was 120%, the viability, T/C (second compound 1 µM, first compound 0.01 µM) was 44.5% and the viability, T/C (second compound 1 µM, first compound 0.0316 µM) was 36.8%. For the same molecule, the viability, T/C (second compound 1 µM, first compound 0.1 µM) was 33.1%, the viability, T/C (second compound 1 µM, first compound 0.316 µM) was 27% and the viability, T/C (second compound 1 µM, first compound 1 µM) was 18.6%. For the same molecule, the viability, T/C (second compound 3.16 µM, first compound 0.00316 µM) was 88.9%, the viability, T/C (second compound 3.16 µM, first compound 0.01 µM) was 51% and the viability, T/C (second compound 3.16 µM, first compound 0.0316 µM) was 46.8%. The viability, T/C (second compound 3.16 µM, first compound 0.1 µM) was 18.1%, the viability, T/C (second compound 3.16 µM, first compound 0.316 µM) was 28.9% and the viability, T/C (second compound 3.16 µM, first compound 1 µM) was 18.5%. The viability, T/C (second compound 10 µM, first compound 0.00316 µM) was 68%, the viability, T/C (second compound 10 µM, first compound 0.01 µM) was 57.6% and the viability, T/C (second compound 10 µM, first compound 0.0316 µM) was 86.7%. For the same molecule, the viability, T/C (second compound 10 µM, first compound 0.1 µM) was 44.9%, the viability, T/C (second compound 10 µM, first compound 0.316 µM) was 38.2% and the viability, T/C (second compound 10 µM, first compound 1 µM) was 23.5%.
`COc1cc(C2c3cc4c(cc3C(OC3OC5COC(C)OC5C(O)C3O)C3COC(=O)C23)OCO4)cc(OC)c1O` (stereo not given) was tested, and the viability, T/C (compound 0.0316 µM) was 92.1% and 89.8% and 87.4%, the viability, T/C (compound 0.1 µM) was 56.1% and 74.7% and 56.7% and the viability, T/C (compound 0.316 µM) was 42.6% and 37.3% and 54.9%. The viability, T/C (compound 1 µM) was 36.4% and 29.4% and 38.1%, the viability, T/C (compound 3.16 µM) was 15% and 14.1% and 14.8% and the viability, T/C (compound 10 µM) was 5.65% and 9.75% and 6.75%. For the same molecule, the IC50 (curve of compound) was 212 nM and 240 nM and 313 nM.
`O=C(c1cc(Cc2n[nH]c(=O)c3ccccc23)ccc1F)N1CCN(C(=O)C2CC2)CC1` was tested, and the viability, T/C (compound 0.0316 µM) was 98.7% and 77.9% and 85.7%, the viability, T/C (compound 0.1 µM) was 94% and 103% and 89.2% and the viability, T/C (compound 0.316 µM) was 101% and 90.9% and 80.3%. For the same molecule, the viability, T/C (compound 1 µM) was 91.5% and 88.8% and 54.5%, the viability, T/C (compound 3.16 µM) was 63.4% and 55.2% and 62.6% and the viability, T/C (compound 10 µM) was 32.4% and 33.3% and 36.9%. The IC50 (curve of compound) was 5190 nM and 4150 nM and 4320 nM.
With `Nc1ccc(C#CCN(C(=O)Cc2ncc(C(F)(F)F)cc2C(F)(F)F)c2ccc(F)cc2)nn1` the viability, T/C (compound 10 µM) was 94.6% [middle of 13 runs] and the IC50 (compound alone, run of 11/06/2023) was over 10000 nM.
`CNCc1ccc(-c2[nH]c3cc(F)cc4c3c2CCNC4=O)cc1` was tested, and the viability, T/C (compound 0.0316 µM) was 90.6% and 92.2% and 105%, the viability, T/C (compound 0.1 µM) was 111% and 79.6% and 87% and the viability, T/C (compound 0.316 µM) was 112% and 90% and 90.3%. The viability, T/C (compound 1 µM) was 107% and 83.3% and 103%, the viability, T/C (compound 3.16 µM) was 110% and 98.3% and 105% and the viability, T/C (compound 10 µM) was 93.4% and 76.8% and 66.9%. The IC50 (curve of compound) was over 10000 nM.
